Holding throughout (type): cell-based
For one assay, the target named is α4β1 (Homo sapiens, UniProt P05556+P13612). Description: α4β1-VCAM Cell Adhesion Assay (Jurkat E6.1 human cells). Details: host or cells: Jurkat E6.1 human T cells. The procedure, abridged: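 Jurkat E6.1 cells in DMEM with 0.1% BSA, 10 mM HEPES pH 7 and 1 mM MnCl2 were added (200,000/well) with serially diluted peptides to rh VCAM-1-Fc-coated wells (400 ng/well) for 30-45 min at 37 °C. Adherent cells after washing were quantified by MTT, absorbance 570 nm, with no-cell background subtracted for dose response.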

Assay [1] addresses T1, α4β7 (Homo sapiens, UniProt P13612+P26010). Description: PBMC Memory T Cell Adhesion Assay, adhesion to MAdCAM-1. The procedure, abridged:
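Fresh human CD4+/CD45RO+ memory T cells in binding medium with 1 mM MnCl2 were preincubated with compound for 1.5 h at 37° C. on plates coated with Fc-captured MAdCAM-1 (400 ng/well). Adherent cells were read by fluorescence (Ex 485/Em 530). IC50 came from four-parameter nonlinear regression of RFU versus log concentration.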

The target in assay [2] is T1, α4β7. Description: α4β7-MAdCAM Cell Adhesion Assay (RPMI 8866 human cells). Also on record: host or cells: RPMI 8866 human B lymphoblastoid cells. The method, boiled down: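 Adhesion read-out: MTT absorbance at 570 nm minus no-cell wells, after three washes. Plates coated with rh MAdCAM-1/Fc received peptide dilutions plus 200,000 RPMI 8866 cells in Mn2+ (1 mM)-supplemented DMEM, 0.1% BSA, HEPES pH 7, incubated 30-45 min, 37 °C.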

The mark [3] stands for this setting: Table 4-B, read-out: Cell Adhesion α4β1 IC50.
[4] abbreviates: Table 4-B, read-out: Cell Adhesion PBMC IC50.
Where [5] appears, read: Table 4-B, read-out: Cell Adhesion α4β7 IC50.

As usually defined, the IC50 is the point on the concentration scale where inhibition reaches its midpoint.

Read-outs that look alike come from different tables or passages of the source. Numbered stars: 1 amine (or outer) side, 2 acyl side, 3 side chain; on linkers, the order of the positions; unused ones are H or OH. Bridge positions count the residues as written; N and C are the ends. Square brackets hold non-standard residues; d marks the D form. Peptide text beside a SMILES is read from it. I, II: the chains in the order shown. Phe(4-tBu) = CC(C)(C)c1ccc(C[C@H](N)C(=O)O)cc1; Diglycolyl = O=C(COCC(=O)[*:2])[*:1]; NMeR = CN[C@@H](CCCNC(=N)N)C(=O)O; β3hE = N[C@@H](CCC(=O)O)CC(=O)O; Pen = CC(C)(S)[C@H](N)C(=O)O

Sequence of α4β1 (P13612 34-1032): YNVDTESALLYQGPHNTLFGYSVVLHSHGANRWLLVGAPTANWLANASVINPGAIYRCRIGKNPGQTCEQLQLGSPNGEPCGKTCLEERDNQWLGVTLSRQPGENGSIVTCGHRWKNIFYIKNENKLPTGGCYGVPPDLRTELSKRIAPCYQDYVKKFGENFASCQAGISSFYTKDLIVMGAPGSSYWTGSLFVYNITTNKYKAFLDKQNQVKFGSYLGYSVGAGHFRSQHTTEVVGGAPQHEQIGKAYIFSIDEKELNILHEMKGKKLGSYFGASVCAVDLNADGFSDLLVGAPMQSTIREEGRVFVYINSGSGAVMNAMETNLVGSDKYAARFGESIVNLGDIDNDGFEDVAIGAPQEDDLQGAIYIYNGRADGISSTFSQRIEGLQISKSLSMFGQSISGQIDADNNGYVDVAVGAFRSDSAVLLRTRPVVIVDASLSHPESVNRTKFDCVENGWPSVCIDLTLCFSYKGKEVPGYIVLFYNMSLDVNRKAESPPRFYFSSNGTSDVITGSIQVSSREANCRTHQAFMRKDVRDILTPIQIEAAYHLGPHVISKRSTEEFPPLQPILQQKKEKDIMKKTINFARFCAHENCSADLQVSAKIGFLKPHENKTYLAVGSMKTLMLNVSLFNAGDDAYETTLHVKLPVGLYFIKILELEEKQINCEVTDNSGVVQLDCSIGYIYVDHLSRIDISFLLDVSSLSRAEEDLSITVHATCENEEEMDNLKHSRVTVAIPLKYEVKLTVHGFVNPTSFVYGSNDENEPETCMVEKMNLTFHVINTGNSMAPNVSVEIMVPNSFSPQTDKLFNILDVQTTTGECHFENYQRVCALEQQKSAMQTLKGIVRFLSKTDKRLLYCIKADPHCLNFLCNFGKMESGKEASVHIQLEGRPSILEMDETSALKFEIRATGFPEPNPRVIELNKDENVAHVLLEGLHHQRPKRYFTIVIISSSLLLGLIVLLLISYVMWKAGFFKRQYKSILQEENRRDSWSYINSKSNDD
Sequence of α4β1 (P05556 21-798): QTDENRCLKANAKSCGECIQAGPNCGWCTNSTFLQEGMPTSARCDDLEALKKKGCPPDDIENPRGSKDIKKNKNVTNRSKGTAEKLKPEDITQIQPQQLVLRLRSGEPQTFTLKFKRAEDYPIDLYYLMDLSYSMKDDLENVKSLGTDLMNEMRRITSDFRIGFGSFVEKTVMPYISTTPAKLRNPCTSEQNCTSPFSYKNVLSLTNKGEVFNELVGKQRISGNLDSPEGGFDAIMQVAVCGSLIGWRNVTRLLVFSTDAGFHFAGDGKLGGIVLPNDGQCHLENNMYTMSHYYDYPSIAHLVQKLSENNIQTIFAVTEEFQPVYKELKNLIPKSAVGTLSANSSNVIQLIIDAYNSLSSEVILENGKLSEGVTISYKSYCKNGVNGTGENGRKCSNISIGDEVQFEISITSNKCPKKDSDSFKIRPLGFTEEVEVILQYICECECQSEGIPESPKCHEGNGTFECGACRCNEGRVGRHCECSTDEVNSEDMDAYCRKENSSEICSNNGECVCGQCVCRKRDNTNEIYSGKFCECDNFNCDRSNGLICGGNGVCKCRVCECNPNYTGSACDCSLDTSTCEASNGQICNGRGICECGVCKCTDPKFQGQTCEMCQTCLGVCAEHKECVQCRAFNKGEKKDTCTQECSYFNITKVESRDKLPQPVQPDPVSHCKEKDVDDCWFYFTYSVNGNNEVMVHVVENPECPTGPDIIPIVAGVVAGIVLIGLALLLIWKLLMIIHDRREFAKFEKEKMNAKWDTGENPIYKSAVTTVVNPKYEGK
T1 sequence (P13612 34-1032): as the sequence (P13612 34-1032) above
T1 sequence (P26010 20-798): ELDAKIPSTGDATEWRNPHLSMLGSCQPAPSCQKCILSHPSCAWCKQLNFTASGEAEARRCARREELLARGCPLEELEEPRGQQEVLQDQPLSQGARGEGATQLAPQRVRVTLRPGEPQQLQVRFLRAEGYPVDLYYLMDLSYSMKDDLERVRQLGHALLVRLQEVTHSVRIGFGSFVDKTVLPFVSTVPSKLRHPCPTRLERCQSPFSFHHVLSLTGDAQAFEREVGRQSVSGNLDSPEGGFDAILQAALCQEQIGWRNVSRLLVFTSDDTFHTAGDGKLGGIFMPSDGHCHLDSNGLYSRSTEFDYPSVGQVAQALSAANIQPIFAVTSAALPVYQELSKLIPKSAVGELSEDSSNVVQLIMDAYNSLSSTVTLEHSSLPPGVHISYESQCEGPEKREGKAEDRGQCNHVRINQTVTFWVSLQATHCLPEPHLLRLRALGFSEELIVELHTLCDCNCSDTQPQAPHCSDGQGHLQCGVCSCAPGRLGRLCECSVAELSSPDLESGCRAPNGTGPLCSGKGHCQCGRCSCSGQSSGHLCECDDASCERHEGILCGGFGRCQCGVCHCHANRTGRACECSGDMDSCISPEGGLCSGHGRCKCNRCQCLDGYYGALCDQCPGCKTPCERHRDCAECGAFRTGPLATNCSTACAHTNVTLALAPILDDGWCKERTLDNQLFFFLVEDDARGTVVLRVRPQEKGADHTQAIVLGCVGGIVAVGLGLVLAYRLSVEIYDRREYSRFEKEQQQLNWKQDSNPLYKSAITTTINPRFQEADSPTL

Regarding `CC(=O)N[C@@H]1C(=O)N(C)[C@@H](CCCNC(=N)N)C(=O)N[C@@H](CO)C(=O)N[C@@H](CC(=O)O)C(=O)N[C@@H]([C@@H](C)O)C(=O)N[C@@H](CC(C)C)C(=O)N[C@H](C(=O)N[C@@H](Cc2c[nH]c3ccccc23)C(=O)N[C@H](CCCCNC(=O)COCC(=O)NCCCC[C@@H](NC(=O)[C@H](Cc2c[nH]c3ccccc23)NC(=O)[C@H]2NC(=O)[C@H](CC(C)C)NC(=O)[C@H]([C@@H](C)O)NC(=O)[C@H](CC(=O)O)NC(=O)[C@H](CO)NC(=O)[C@H](CCCNC(=N)N)N(C)C(=O)[C@@H](NC(C)=O)C(C)(C)SSC2(C)C)C(N)=O)C(N)=O)C(C)(C)SSC1(C)C` [compound 209, (Ac-Pen-N-Me-R-S-D-T-L-Pen-W-k-NH2)2-DIG] (I: Ac-[Pen][NMeR]SDTL[Pen]W[dK]-NH2 / II: Ac-[Pen][NMeR]SDTL[Pen]W[dK]-NH2; disulfide I:1-I:7, II:1-II:7 (inferred); linker I:9-II:9 via Diglycolyl (inferred)), the IC50 on α4β1 (setting [3]) was > 100000 nM; on α4β7 [1] (setting [4]), 260 nM; at α4β7 [2] (setting [5]), 24 nM.

On to `CC(=O)N[C@@H]1C(=O)N(C)[C@@H](CCCNC(=N)N)C(=O)N[C@@H](CO)C(=O)N[C@@H](CC(=O)O)C(=O)N[C@@H]([C@@H](C)O)C(=O)N[C@@H](CC(C)C)C(=O)N[C@H](C(=O)N[C@@H](Cc2ccc(C(C)(C)C)cc2)C(=O)N[C@@H](CCC(=O)O)CC(=O)N[C@H](CCCCNC(=O)COCC(=O)NCCCC[C@@H](NC(=O)C[C@H](CCC(=O)O)NC(=O)[C@H](Cc2ccc(C(C)(C)C)cc2)NC(=O)[C@H]2NC(=O)[C@H](CC(C)C)NC(=O)[C@H]([C@@H](C)O)NC(=O)[C@H](CC(=O)O)NC(=O)[C@H](CO)NC(=O)[C@H](CCCNC(=N)N)N(C)C(=O)[C@@H](NC(C)=O)C(C)(C)SSC2(C)C)C(N)=O)C(N)=O)C(C)(C)SSC1(C)C` [compound 132] (I: Ac-[Pen][NMeR]SDTL[Pen][Phe(4-tBu)][β3hE][dK]-NH2 / II: Ac-[Pen][NMeR]SDTL[Pen][Phe(4-tBu)][β3hE][dK]-NH2; disulfide I:1-I:7, II:1-II:7; linker I:10-II:10 via Diglycolyl), for which the IC50 on α4β1 (Table 3-B, Selectivity (α4β1), range classes, read-out: α4β1 cell IC50) is > 100000 nM; on α4β7 [1] (Table 3-B, range classes, read-out: PBMC IC50), < 10 nM; on α4β7 [2] (Table 3-B, Potency (α4β7), range classes, read-out: α4β7 cell (Hu) IC50), < 10 nM.

For the compound `CC(=O)N[C@@H]1C(=O)N(C)[C@@H](CCCNC(=N)N)C(=O)N[C@@H](CO)C(=O)N[C@@H](CC(=O)O)C(=O)N[C@@H]([C@@H](C)O)C(=O)N[C@@H](CC(C)C)C(=O)N[C@H](C(=O)N[C@@H](Cc2c[nH]c3ccccc23)C(=O)N[C@H](CCC(=O)O)C(=O)N[C@H](CCCCNC(=O)COCC(=O)NCCCC[C@@H](NC(=O)[C@@H](CCC(=O)O)NC(=O)[C@H](Cc2c[nH]c3ccccc23)NC(=O)[C@H]2NC(=O)[C@H](CC(C)C)NC(=O)[C@H]([C@@H](C)O)NC(=O)[C@H](CC(=O)O)NC(=O)[C@H](CO)NC(=O)[C@H](CCCNC(=N)N)N(C)C(=O)[C@@H](NC(C)=O)C(C)(C)SSC2(C)C)C(=O)O)C(=O)O)C(C)(C)SSC1(C)C` [compound 216, (Ac-Pen-N-Me-R-S-D-T-L-Pen-W-e-k-OH)2-DIG] (I: Ac-[Pen][NMeR]SDTL[Pen]W[dE][dK]-OH / II: Ac-[Pen][NMeR]SDTL[Pen]W[dE][dK]-OH; disulfide I:1-I:7, II:1-II:7 (inferred); linker I:10-II:10 via Diglycolyl (inferred)), the IC50 on α4β1 (setting [3]) is > 100000 nM; at α4β7 [1] (setting [4]), 14.5 nM; on α4β7 [2] (setting [5]), 4.2 nM.

The record behind these values is patent US9809623B2, “α4β7 peptide monomer and dimer antagonists” (Protagonist Therapeutics, Inc., priority 2014, dated 2017).
